# Source: BindingDB's records for doi:10.7270/Q2Q52N1X (Vanderbilt Screening Center for GPCRs, Ion Channels and …, 2009)
# Target: T1, Solute carrier family 12 member 5 (Homo sapiens, UniProt Q9H2X9)
# T1 sequence (Q9H2X9 whole entry): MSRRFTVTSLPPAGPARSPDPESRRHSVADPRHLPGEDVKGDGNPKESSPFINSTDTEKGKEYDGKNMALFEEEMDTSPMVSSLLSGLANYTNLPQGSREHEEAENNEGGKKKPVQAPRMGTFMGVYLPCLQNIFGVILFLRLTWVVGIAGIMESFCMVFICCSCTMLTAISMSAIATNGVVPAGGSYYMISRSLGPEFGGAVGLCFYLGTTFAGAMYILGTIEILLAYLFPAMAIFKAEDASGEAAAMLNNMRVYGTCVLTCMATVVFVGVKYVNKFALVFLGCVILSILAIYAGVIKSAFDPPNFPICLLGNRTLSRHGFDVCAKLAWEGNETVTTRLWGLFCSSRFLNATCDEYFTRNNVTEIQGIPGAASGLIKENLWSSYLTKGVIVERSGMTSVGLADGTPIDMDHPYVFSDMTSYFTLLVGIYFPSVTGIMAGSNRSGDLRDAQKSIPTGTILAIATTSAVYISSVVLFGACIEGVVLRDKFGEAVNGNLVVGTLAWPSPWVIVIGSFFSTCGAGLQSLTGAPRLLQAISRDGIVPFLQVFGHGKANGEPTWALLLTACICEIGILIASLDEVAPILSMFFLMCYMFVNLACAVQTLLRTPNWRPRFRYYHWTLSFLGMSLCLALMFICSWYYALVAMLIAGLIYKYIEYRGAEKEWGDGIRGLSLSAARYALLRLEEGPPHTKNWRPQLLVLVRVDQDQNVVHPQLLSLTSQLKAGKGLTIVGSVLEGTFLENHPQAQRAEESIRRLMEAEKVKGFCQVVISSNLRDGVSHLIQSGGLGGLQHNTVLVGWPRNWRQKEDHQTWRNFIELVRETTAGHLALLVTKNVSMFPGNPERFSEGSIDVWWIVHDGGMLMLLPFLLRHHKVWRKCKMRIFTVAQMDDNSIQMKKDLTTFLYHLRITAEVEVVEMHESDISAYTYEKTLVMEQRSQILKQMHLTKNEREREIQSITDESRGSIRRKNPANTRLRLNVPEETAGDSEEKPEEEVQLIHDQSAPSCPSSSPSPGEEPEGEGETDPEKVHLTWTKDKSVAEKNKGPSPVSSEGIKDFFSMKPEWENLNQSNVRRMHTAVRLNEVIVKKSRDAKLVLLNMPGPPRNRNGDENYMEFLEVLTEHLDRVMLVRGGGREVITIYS
# Assay: concentration-response of KCC2 transport modulators – cell-based, HEK293 KCC2, FluoZin-2 fluorescence, dose response (AID 1736)
# Conditions: not given
row,Compound,EC50 [µM]
1,"Cc1cccc(-c2nc(C[S+]([O-])CC(=O)N3CCc4ccccc4C3)c(C)o2)c1 (stereo not given) [1-(3,4-dihydro-1H-isoquinolin-2-yl)-2-[[5-methyl-2-(3-methylphenyl)-1,3-oxazol-4-yl]methylsulfinyl]ethanone]",5.03
2,"N#Cc1nc(-c2cccs2)oc1N1CCN(Cc2ccccc2)CC1 [5-(4-benzyl-1-piperazinyl)-2-(2-thienyl)-1,3-oxazole-4-carbonitrile]",11.7
3,"O=S1(=O)N=C(N2CCN(Cc3ccccc3)CC2)c2ccccc21 [3-(4-Benzyl-piperazin-1-yl)-benzo[d]isothiazole 1,1-dioxide]",3.19
4,Cc1ccc(S(=O)(=O)N(CCC(=O)O)Cc2ccc(Cl)cc2)cc1 [3-[(4-chlorobenzyl)-tosyl-amino]propionic acid],0.356
5,O=C(CSc1ccc(-c2cccs2)nn1)Nc1ccccc1F [MLS000621184],2.19
6,O=C(O)/C=C/c1cn(Cc2ccccc2)nc1-c1ccccc1 [MLS000567315],13700
7,Cc1nc(SCc2ccc(F)cc2)c([N+](=O)[O-])[nH]1 [SMR000271028],878
8,NC1=NC[C@@H](Cc2ccc(O)cc2)N1CCc1cc(C(F)(F)F)cc(C(F)(F)F)c1,7.94
9,"Cc1csc(NC(=O)CSc2ccc(-c3ccccc3)nn2)n1 [N-(4-methyl-1,3-thiazol-2-yl)-2-(6-phenylpyridazin-3-yl)sulfanyl-ethanamide]",0.493
10,O=C(Cc1csc(-c2ccccc2)n1)NCc1ccc(F)cc1 [MLS000336311],19.4
11,"Sc1nnc(Cc2c[nH]c3ccccc23)o1 [5-(1H-indol-3-ylmethyl)-1,3,4-oxadiazole-2(3H)-thione]",3.76
12,"Cc1n[nH]c(O)c1C(c1ccc(-c2ccc(F)cc2)o1)c1c(C)n[nH]c1O [4-[[5-(4-fluorophenyl)furan-2-yl]-(3-methyl-5-oxo-1,2-dihydropyrazol-4-yl)methyl]-5-methyl-1,2-dihydropyrazol-3-one]",14.3
13,"O=C(NC(=S)Nc1nc(-c2cccc([N+](=O)[O-])c2)cs1)c1cc(Cl)ccc1Cl [2,5-bis(chloranyl)-N-[[4-(3-nitrophenyl)-1,3-thiazol-2-yl]carbamothioyl]benzamide]",34.7
14,"CC(NC(=O)CCc1nnc(-c2ccc(-c3ccccc3)cc2)o1)c1nccs1 (stereo not given) [3-(5-biphenyl-4-yl-1,3,4-oxadiazol-2-yl)-N-[1-(1,3-thiazol-2-yl)ethyl]propanamide]",4.79
15,O=C(OC1CCc2ccccc2C1=O)c1ccccc1O (stereo not given) [MLS000051417],0.53
16,"O=C(C1CCN(c2nc3ccc(Br)cc3s2)CC1)N1CCC2(CC1)OCCO2 [8-{[1-(6-bromo-1,3-benzothiazol-2-yl)piperidin-4-yl]carbonyl}-1,4-dioxa-8-azaspiro[4.5]decane]",7.02
17,"O=[N+]([O-])c1ccc(CSc2nnc(SCc3ccccc3)s2)cc1 [2-(benzylthio)-5-[(4-nitrobenzyl)thio]-1,3,4-thiadiazole]",11.2
18,"O=C(Cn1nnc2c(cnn2-c2ccccc2)c1=O)N1CCN(c2ccccc2F)CC1 [3-[2-[4-(2-fluorophenyl)-1-piperazinyl]-2-oxoethyl]-7-phenyl-4-pyrazolo[3,4-d]triazinone]",15.6

row,Compound,EC50 [µM]
1,CS/C(=N\Cc1ccc(F)cc1)NS(=O)(=O)c1cccs1 [3-(4-fluorobenzyl)-2-methyl-1-(2-thienylsulfonyl)isothiourea],0.89
2,"O=C(CSc1nnc(C2CC2)n1Cc1ccccc1)c1cc2ccccc2o1 [1-(1-benzofuran-2-yl)-2-[(4-benzyl-5-cyclopropyl-1,2,4-triazol-3-yl)sulfanyl]ethanone]",5.3
3,"CCCn1c(N)c(C(=O)CSc2nnc(Cc3ccccc3)o2)c(=O)n(C)c1=O [6-amino-3-methyl-5-[1-oxo-2-[[5-(phenylmethyl)-1,3,4-oxadiazol-2-yl]thio]ethyl]-1-propylpyrimidine-2,4-dione]",0.00011
4,c1ccc(-c2csc(N=NCc3ccco3)n2)cc1 [(2-furfurylideneamino)-(4-phenylthiazol-2-yl)amine],65
5,Cc1ccc(C(=O)CC=Nc2ccccc2C(N)=O)cc1 [2-[[(E)-3-(4-methylphenyl)-3-oxidanylidene-prop-1-enyl]amino]benzamide],7.95
6,CC1CCCCN1C(=O)CSc1nnc(-c2c[nH]c3ccccc23)o1 (stereo not given),10.7
7,CC1CCN(C(=O)CSc2ccc(-c3ccc(F)cc3)nn2)CC1 [2-[6-(4-Fluoro-phenyl)-pyridazin-3-ylsulfanyl]-1-(4-methyl-piperidin-1-yl)-ethanone],3.08
8,c1ccc(-c2csc(N=NCc3cccnc3)n2)cc1 [(4-phenylthiazol-2-yl)-(3-pyridylmethyleneamino)amine],35.8
9,COC(=O)c1sccc1NC(=S)OC [3-(methoxycarbothioylamino)thiophene-2-carboxylic acid methyl ester],3.94
10,O=C(NCCCCc1ccccc1)C1CC(c2ccccc2[N+](=O)[O-])=NO1 (stereo not given) [3-(2-nitrophenyl)-N-(4-phenylbutyl)-2-isoxazoline-5-carboxamide],8.63
11,"O=C(C1CCN(S(=O)(=O)c2cccs2)CC1)N1CCc2ccccc2C1 [3,4-dihydro-1H-isoquinolin-2-yl-(1-thiophen-2-ylsulfonyl-4-piperidinyl)methanone]",4.18
12,"COc1ccc(-c2nnc(S/C(=C/c3ccc(Cl)cc3)C(=O)O)o2)cc1 [(E)-3-(4-chlorophenyl)-2-[[5-(4-methoxyphenyl)-1,3,4-oxadiazol-2-yl]sulfanyl]prop-2-enoic acid]",0.489
13,"O=C(NCc1cccnc1)c1ccc(COc2ccc(Cl)cc2Cl)o1 [5-[(2,4-dichlorophenoxy)methyl]-N-(3-pyridinylmethyl)-2-furancarboxamide]",2060
14,CCOc1cc(S(=O)(=O)NCc2ccccc2)ccc1F [3-ethoxy-4-fluoranyl-N-(phenylmethyl)benzenesulfonamide],4.68
15,"COc1cc(OC)c(C2=NOC(C(=O)NCCc3ccccc3)C2)cc1Cl (stereo not given) [3-(5-chloranyl-2,4-dimethoxy-phenyl)-N-(2-phenylethyl)-4,5-dihydro-1,2-oxazole-5-carboxamide]",6.25
16,"CCCCCN1C/C=C\C(c2ccc(OC)cc2)N(Cc2ccc(F)cc2)C(=O)C1 (stereo not given) [(6Z)-1-amyl-4-(4-fluorobenzyl)-5-(4-methoxyphenyl)-5,8-dihydro-2H-1,4-diazocin-3-one]",7.86
17,"Cc1ccc(OCCC(=O)OCC(=O)N2c3ccccc3CC2C)cc1 (stereo not given) [3-(4-methylphenoxy)propanoic acid [2-(2-methyl-2,3-dihydroindol-1-yl)-2-oxoethyl] ester]",4.4

# Same assay, conditions: inactive by the depositor's call
row,Compound,EC50 [µM]
1,O=C(Cn1nnc(-c2ccccc2-n2cnnn2)n1)NCc1ccccc1 [MLS000073516],24
2,Cc1nnc(NC(=O)c2ccc3ccccc3c2)o1 [MLS000056450],85.7
3,"CCC(C)(C)n1nnnc1C(c1ccc(O)c(OC)c1)N1CCN(c2nc3ccccc3s2)CC1 (stereo not given) [4-[(1-tert-amyltetrazol-5-yl)-[4-(1,3-benzothiazol-2-yl)piperazino]methyl]-2-methoxy-phenol]",9.05
4,"CSc1ccc(NC(=O)NCCN2CCc3ccccc3C2)cc1 [1-[2-(3,4-dihydro-1H-isoquinolin-2-yl)ethyl]-3-(4-methylsulfanylphenyl)urea]",21.5
5,C=CCNC(=O)NC(=O)CSc1nc2cc([N+](=O)[O-])ccc2n1-c1cccc(C(F)(F)F)c1 [2-[5-nitro-1-[3-(trifluoromethyl)phenyl]benzimidazol-2-yl]sulfanyl-N-(prop-2-enylcarbamoyl)acetamide],19.2
